Results taken from patent US10472352B2, “Rac inhibitors” (Geneyus LLC, priority 2017, dated 2019).
Like-named read-outs stand apart in the source and are kept apart here.

Tested on: BT474 breast cancer cells
Assay: BT474 Four (4) Day Cell Viability Assay
Assay type: cell-based
Conditions: Homo sapiens, BT-474, 96 h, BT474, 4 days, read-out: cellular viability; for viability at 10 µM: 32661 10 μM
Procedure: BT474 breast cancer cells that are Estrogen Receptor Positive and HER2+ were grown in 5% cFBS. 5,000 cells were seeded into each well of a 96-well plate and treated with escalating doses of lapatinib, fulvestrant, and 32661.

Q: Which results are given for `FC(F)(F)c1ccc2c(SCCCCCCn3cnc(CN4CCOCC4)c3)ccnc2c1` [Compound 0032661, 4-[[1-[6-[[7-(trifluoromethyl)-4-quinolyl]sulfanyl]hexyl]imidazol-4-yl]methyl]morpholine]?
A: viability at 7.5 µM (32661 7.5 μM, fulvestrant 3333.0 nM, lapatinib 3333.0 nM): 1%; viability at 10 µM (fulvestrant 0.0 nM, lapatinib 0.0 nM): 90%; viability at 10 µM (fulvestrant 0.0 nM, lapatinib 6.9 nM): 42%; viability at 10 µM (fulvestrant 0.0 nM, lapatinib 20.6 nM): 38%; viability at 10 µM (fulvestrant 0.0 nM, lapatinib 61.7 nM): 35%; viability at 10 µM (fulvestrant 0.0 nM, lapatinib 185.2 nM): 28%; viability at 10 µM (fulvestrant 0.0 nM, lapatinib 555.6 nM): 28%; viability at 10 µM (fulvestrant 0.0 nM, lapatinib 1666.7 nM): 23%; viability at 10 µM (fulvestrant 0.0 nM, lapatinib 3333.0 nM): 5%; viability at 10 µM (fulvestrant 6.9 nM, lapatinib 0.0 nM): 90%; viability at 10 µM (fulvestrant 6.9 nM, lapatinib 6.9 nM): 38%; viability at 10 µM (fulvestrant 6.9 nM, lapatinib 20.6 nM): 35%; viability at 10 µM (fulvestrant 6.9 nM, lapatinib 61.7 nM): 33%; viability at 10 µM (fulvestrant 6.9 nM, lapatinib 185.2 nM): 27%; viability at 10 µM (fulvestrant 6.9 nM, lapatinib 555.6 nM): 24%; viability at 10 µM (fulvestrant 6.9 nM, lapatinib 1666.7 nM): 20%; viability at 10 µM (fulvestrant 6.9 nM, lapatinib 3333.0 nM): 3%; viability at 10 µM (fulvestrant 20.6 nM, lapatinib 0.0 nM): 89%; viability at 10 µM (fulvestrant 20.6 nM, lapatinib 6.9 nM): 36%; viability at 10 µM (fulvestrant 20.6 nM, lapatinib 20.6 nM): 36%; viability at 10 µM (fulvestrant 20.6 nM, lapatinib 61.7 nM): 33%; viability at 10 µM (fulvestrant 20.6 nM, lapatinib 185.2 nM): 28%; viability at 10 µM (fulvestrant 20.6 nM, lapatinib 555.6 nM): 23%; viability at 10 µM (fulvestrant 20.6 nM, lapatinib 1666.7 nM): 20%; viability at 10 µM (fulvestrant 20.6 nM, lapatinib 3333.0 nM): 3%; viability at 10 µM (fulvestrant 61.7 nM, lapatinib 0.0 nM): 86%; viability at 10 µM (fulvestrant 61.7 nM, lapatinib 6.9 nM): 37%; viability at 10 µM (fulvestrant 61.7 nM, lapatinib 20.6 nM): 35%; viability at 10 µM (fulvestrant 61.7 nM, lapatinib 61.7 nM): 33%; viability at 10 µM (fulvestrant 61.7 nM, lapatinib 185.2 nM): 27%; viability at 10 µM (fulvestrant 61.7 nM, lapatinib 555.6 nM): 23%; viability at 10 µM (fulvestrant 61.7 nM, lapatinib 1666.7 nM): 20%; viability at 10 µM (fulvestrant 61.7 nM, lapatinib 3333.0 nM): 2%; viability at 10 µM (fulvestrant 185.2 nM, lapatinib 0.0 nM): 86%; viability at 10 µM (fulvestrant 185.2 nM, lapatinib 6.9 nM): 33%; viability at 10 µM (fulvestrant 185.2 nM, lapatinib 20.6 nM): 33%; viability at 10 µM (fulvestrant 185.2 nM, lapatinib 61.7 nM): 31%; viability at 10 µM (fulvestrant 185.2 nM, lapatinib 185.2 nM): 24%; viability at 10 µM (fulvestrant 185.2 nM, lapatinib 555.6 nM): 23%; viability at 10 µM (fulvestrant 185.2 nM, lapatinib 1666.7 nM): 18%; viability at 10 µM (fulvestrant 185.2 nM, lapatinib 3333.0 nM): 1%; viability at 10 µM (fulvestrant 555.6 nM, lapatinib 0.0 nM): 81%; viability at 10 µM (fulvestrant 555.6 nM, lapatinib 6.9 nM): 31%; viability at 10 µM (fulvestrant 555.6 nM, lapatinib 20.6 nM): 29%; viability at 10 µM (fulvestrant 555.6 nM, lapatinib 61.7 nM): 29%; viability at 10 µM (fulvestrant 555.6 nM, lapatinib 185.2 nM): 24%; viability at 10 µM (fulvestrant 555.6 nM, lapatinib 555.6 nM): 23%; viability at 10 µM (fulvestrant 555.6 nM, lapatinib 1666.7 nM): 18%; viability at 10 µM (fulvestrant 555.6 nM, lapatinib 3333.0 nM): 1%; viability at 10 µM (fulvestrant 1666.7 nM, lapatinib 0.0 nM): 78%; viability at 10 µM (fulvestrant 1666.7 nM, lapatinib 6.9 nM): 16%; viability at 10 µM (fulvestrant 1666.7 nM, lapatinib 20.6 nM): 16%; viability at 10 µM (fulvestrant 1666.7 nM, lapatinib 61.7 nM): 15%; viability at 10 µM (fulvestrant 1666.7 nM, lapatinib 185.2 nM): 16%; viability at 10 µM (fulvestrant 1666.7 nM, lapatinib 555.6 nM): 15%; viability at 10 µM (fulvestrant 1666.7 nM, lapatinib 1666.7 nM): 7%; viability at 10 µM (fulvestrant 1666.7 nM, lapatinib 3333.0 nM): 0%; viability at 10 µM (fulvestrant 3333.0 nM, lapatinib 0.0 nM): 55%; viability at 10 µM (fulvestrant 3333.0 nM, lapatinib 6.9 nM): 3%; viability at 10 µM (fulvestrant 3333.0 nM, lapatinib 20.6 nM): 3%; viability at 10 µM (fulvestrant 3333.0 nM, lapatinib 61.7 nM): 6%; viability at 10 µM (fulvestrant 3333.0 nM, lapatinib 185.2 nM): 2%; viability at 10 µM (fulvestrant 3333.0 nM, lapatinib 555.6 nM): 2%; viability at 10 µM (fulvestrant 3333.0 nM, lapatinib 1666.7 nM): 1%; viability at 10 µM (fulvestrant 3333.0 nM, lapatinib 3333.0 nM): 0%
